Read-outs that look alike come from different tables or passages of the source.
Tests used:
HepG2 = conditions: human, hepg2 cells, 48 h
in vitro [1] = conditions: human, hepg2 cells
[2] = tested on: P. berghei-ANKA-GFP-LucCON liver stage parasites in HepG2-A16-CD81EGFP cells; experiment: P. berghei liver stage Pb-Luc assay, Method 1 (UCSD, 1536-well); assay type: cell-based, Plasmodium berghei; conditions: for Max Resp (signal direction of the dose response) / AC50: Method 1; for Max Resp (signal direction of the dose response): Decrease = decreasing P. berghei viability with dose, Increase = increasing signal, Inactive = no dose response; for activity at 1 µM / activity at 3 µM / AC50: Plasmodium berghei; for activity at 1 µM / activity at 3 µM: 48 h, average of 2 wells on a 1536 well plate
in vitro [3] = conditions: human
[4] = tested on: Plasmodium falciparum Dd2 asexual blood stage parasites; experiment: microbe, parasite or virus in culture; parameters: species or system Plasmodium falciparum Dd2 in human erythrocytes; single determination (one 11-point concentration-response curve); conditions: Plasmodium falciparum, DD2, Erythrocyte, 72 h; read-out: AC50
HepG2-A16-CD81EGFP cells = conditions: average of 2 wells; for HepG2 1uM growth rep1 / HepG2 1uM growth rep2: HepG2, 1 µM compound treatment (10 mM stocks); for HepG2 1uM growth rep1 / HepG2 3uM growth rep1: replicate 1, normalized; for HepG2 1uM growth rep2 / HepG2 3uM growth rep2: replicate 2, normalized; for HepG2 3uM growth rep1 / HepG2 3uM growth rep2: HepG2, 3 µM compound treatment (10 mM stocks)
[5] = HepG2-A16-CD81EGFP cells, uninfected
[6] = 1 uM (compounds provided at 10 mM), column 11, read-out: Pb-Luc (P. berghei liver stage), % of control, lower concentration, first repeat
[7] = 1 uM (compounds provided at 10 mM), column 12, read-out: Pb-Luc (P. berghei liver stage), % of control, lower concentration, second repeat
[8] = 3 uM (compounds provided at 10 mM), column 8, read-out: Pb-Luc (P. berghei liver stage), % of control, higher concentration, first repeat
[9] = 3 uM (compounds provided at 10 mM), column 9, read-out: Pb-Luc (P. berghei liver stage), % of control, higher concentration, second repeat
[10] = P. berghei liver stage, 1 µM compound treatment (10 mM stocks), replicate 1, normalized, read-out: PbLuc 1uM growth rep1
[11] = P. berghei liver stage, 1 µM compound treatment (10 mM stocks), replicate 2, normalized, read-out: PbLuc 1uM growth rep2
[12] = P. berghei liver stage, 3 µM compound treatment (10 mM stocks), replicate 1, normalized, read-out: PbLuc 3uM growth rep1
[13] = P. berghei liver stage, 3 µM compound treatment (10 mM stocks), replicate 2, normalized, read-out: PbLuc 3uM growth rep2

SMILES	Log AC50 (M) (HepG2)	CC50 at 48 h (in vitro [1]) [µM]	activity at 1 µM [2, 6] [%]	activity at 1 µM [2, 7] [%]	activity at 3 µM [2, 8] [%]	activity at 3 µM [2, 9] [%]	AC50 [4] [µM]	viability at 48 h, 1 µM (in vitro [3]; [5]) [%]	viability at 48 h, 3 µM (in vitro [3]; [5]) [%]	HepG2 1uM growth rep1 (HepG2-A16-CD81EGFP cells) [%]	HepG2 1uM growth rep2 (HepG2-A16-CD81EGFP cells) [%]	HepG2 3uM growth rep1 (HepG2-A16-CD81EGFP cells) [%]	HepG2 3uM growth rep2 (HepG2-A16-CD81EGFP cells) [%]	activity at 1 µM [2, 10] [%]	activity at 1 µM [2, 11] [%]	activity at 3 µM [2, 12] [%]	activity at 3 µM [2, 13] [%]	other results
Cc1cc(O)c(-c2cc(C(=O)Nc3sc4c(c3C(=O)NCc3ccco3)CCC4)[nH]n2)cc1C [MLS000331999-01]	-4.4643	34.3																Max Resp (signal direction of the dose response) [2]: Inactive; viability at 66 h (in vitro [3]; [5]): 106%
O=C1NC(=S)S/C1=C\C=C\c1ccc([N+](=O)[O-])o1 [MLS000722913-01]	-4.8643	13.7	80	77	57	67	5.31	112	101									
N=c1c2c(n(Cc3ccc(F)cc3)c3c1CCC3)CCCC2 [MLS000856097-01]	-4.7643	17.2	60	59	19	15	2.99	105	81									
Cc1cc(Cl)c(S(=O)(=O)N2CCN(c3ccccn3)CC2)cc1OCC(=O)NC1CCCCC1 [MLS000693481-01]	-4.5643	27.3	102	96	68	80	0.668	91	105									
CCCN(CCC)CCCN=C(S)Nc1ccc2nc(N3CCCC3)cc(C)c2c1 [MLS000730709-01]	-4.3643	43.2	141	128	67	66		112	103									
CCOc1cccc(CNCCc2c(C)[nH]c3ccc(OC(F)(F)F)cc23)c1O.O=C(O)C(=O)O [MLS001198351-01]	-4.4643	34.3					2.37			97	92	70	71	46	47	9	16	
ClC(Cl)(Cl)c1nc2ccccc2n2nncc12 [MLS001171504-01]	-4.3643	43.2	113	83	87	102	2.11	106	95									
CN1C2CCC1/C(=C/c1ccccn1)C(=O)/C2=C\c1ccccn1 [MLS000702810-01]	-4.8143	15.3																Max Resp (signal direction of the dose response) [2]: Decrease; AC50 ([2]; Hill fit, 50% of maximum activity response, read-out: AC50): 0.794 µM; AC50 ([2]; log10 of molar AC50 from Hill fit, read-out: Log AC50 (converted)): 0.794 µM; viability at 48 h (in vitro [3]): 76.4%; viability at 48 h, 1 µM (in vitro [3]): 76.4%
Cc1cccc(-c2cc3nc(C)c(C)c(NCCCn4ccnc4)n3n2)c1 [MLS000529525-01]	-4.3143	48.5					5.31			101	92	82	93	138	123	94	144	
CC(C)CN(Cc1cc(=O)oc2cc(-c3ccccc3)c(O)cc12)CC(C)C [MLS000779012-01]	-4.3643	43.2	87	88	59	60		98	101									
C/C(=N\Nc1ncnc2sc(C)c(C)c12)c1ccccn1 [MLS001176565-01]	-6.3143	0.485					1.33			55	50	36	44	11	8	6	5	
NS(=O)(=O)c1ccc(N/N=C/c2cn(-c3ccccc3)nc2-c2cccs2)cc1 [MLS000393371-01]	-4.6643	21.7					0.335			92	91	94	94	80	57	26	21	
COc1ccc2nc3cc(Cl)ccc3c(Nc3cc(C(C)C)c(O)cc3C)c2c1 [MLS000737404-01]	-4.3643	43.2	113	97	61	53	0.266	112	95									
Cc1cccc(NC2=C/C(=N\S(=O)(=O)c3cccs3)c3ccccc3C2=O)c1 [MLS000585840-01]	-4.4643	34.3	90	90	37	41	0.168	113	95									
CC(Sc1nc2ccccc2c(=O)n1C)C(=O)Nc1ccc2c(c1)OCCO2 (stereo not shown) [MLS002161477-01]	-4.3643	43.2						84										Max Resp (signal direction of the dose response) [2]: Inactive; viability at 48 h (in vitro [3]; [5]): 84%
CC1(C)Cc2ccccc2C2=NNC(=O)C2=N1 [MLS000709658-01]	-4.4643	34.3					3.35			98	96	90	99	117	83	68	64	
N#Cc1ccc(NC(=O)Nc2ccc(Cl)cc2)cc1 [MLS000104525-01]	-4.4643	34.3					5.31			95	87	72	84	86	61	6.45	7	
COc1cc(OC)c(NC2=CC(=O)C(=O)c3ccccc32)cc1Cl [MLS001198657-01]	-4.3643	43.2					2.99	93	59									
COc1ccccc1CNCC(O)Cn1c2ccccc2c2ccccc21 (stereo not shown) [MLS000391556-01]	-4.4643	34.3								97	92	92	93	115	98	107	96	
CN1CCN(c2ccc(Nc3ccnc4cc(Cl)ccc34)cc2)CC1 [MLS001203414-01]	-4.6143	24.3					0.188	86	90									
CCNc1nc(NC(C)(C)C)nc(N2CCCC2)n1 [MLS000528993-01]	-4.3643	43.2					2.37											viability at 66 h (in vitro [3]; [5]): 99.9%
COc1ccc(C2c3ccc4ccccc4c3Oc3ncn(CCCN(C)C)c(=N)c32)cc1 (stereo not shown) [MLS001216280-01]	-4.4643	34.3					2.99	109	103									
Cc1cc(N)c2cc(NC(=O)/C=C/c3ccccc3Cl)ccc2n1 [MLS000737665-01]	-4.3643	43.2	86	67	21	37	1.88	105	108									

Source: publication PMC7822874, “Chemoprotective antimalarials identified through quantitative high-throughput screening of Plasmodium blood and liver stage parasites” (Scientific Reports, 2021)
